Experimental data as given in ChEMBL document CHEMBL5143668, “Modular synthesis of 2,4-diaminoanilines as CNS drug-like non-covalent inhibitors of asparagine endopeptidase” (Bioorg Med Chem, 2022).

Experiments:
[1] = Dissociation constant, pKa of compound; format: physicochemical
Legumain = target: T1, Legumain (Homo sapiens, UniProt Q99538); test: Inhibition of recombinant human Asparagine endopeptidase preincubated for 5 mins followed by Z-Ala-Ala-Asn-AMC substrate addition measured after 2 hrs by microplate reader
T1 sequence (Q99538 whole entry): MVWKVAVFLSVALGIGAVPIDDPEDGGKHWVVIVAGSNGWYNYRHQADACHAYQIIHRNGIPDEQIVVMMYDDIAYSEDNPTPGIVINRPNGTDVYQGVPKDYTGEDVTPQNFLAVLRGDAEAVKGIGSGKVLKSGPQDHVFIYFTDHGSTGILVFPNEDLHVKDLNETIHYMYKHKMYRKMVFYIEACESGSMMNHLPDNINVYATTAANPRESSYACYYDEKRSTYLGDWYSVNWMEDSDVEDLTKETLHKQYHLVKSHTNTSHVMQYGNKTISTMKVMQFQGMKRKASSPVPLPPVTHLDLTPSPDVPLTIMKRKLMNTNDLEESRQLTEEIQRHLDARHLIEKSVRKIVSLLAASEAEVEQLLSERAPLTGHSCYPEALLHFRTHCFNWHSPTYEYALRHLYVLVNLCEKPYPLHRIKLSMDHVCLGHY

Legumain (Homo sapiens) = target: T2, Legumain (Homo sapiens) (UniProt Q99538); test: Inhibition of recombinant human Asparagine endopeptidase at 10 uM preincubated for 5 mins followed by Z-Ala-Ala-Asn-AMC substrate addition measured after 2 hrs by microplate reader relative to control
T2 sequence (whole entry): T1 sequence (Q99538 whole entry)

L929 = test: Cytotoxicity of mouse L929 cells assessed as reduction in cell viability at 5 to 500 nM measured after 24 hrs by MTT assay; format: toxicity, cell-based; details: l929, 24 h, 0.5 µM, dose 5-500 nM

Row | Structure (SMILES) | pKa [1] | IC50 (Legumain) | inhibition (Legumain (Homo sapiens)) | Activity (L929)
1 | Nc1ccc(N2CCOCC2)cc1N1CCC[C@H]1CO | 6.96 | > 5000 nM | 48% | 
2 | Nc1ccc(N2CCSCC2)cc1Cl | 5.61 | > 5000 nM | 43% | 
3 | Nc1ccc(N2CCOCC2)cc1Cl | 4.05 | > 5000 nM | 47% | 
4 | Nc1ccc(N2CCOCC2)cc1N1CCOCC1 | 8.54 | 844 nM | 100% | Non-Toxic
5 | Nc1ccc(N2CCOCC2)cc1N1CCC2(CC1)OCCO2 | 8.62 | 547 nM | 100% | 

Continued, in another order:

Row | pKa [1] | IC50 (Legumain) | inhibition (Legumain (Homo sapiens)) | Structure (SMILES) | Activity (L929)
6 | 8.8 | 89 nM | 98% | CCOC(=O)C1CCN(c2cc(N3CCOCC3)ccc2N)CC1 | Non-Toxic
7 | 10.1 | 757 nM | 81% | Nc1ccc(N2CCSCC2)cc1N1CCSCC1 | 
8 | 10.6 | 4830 nM | 53% | CCOC(=O)C1CCN(c2ccc(N)c(N3CCC(C(=O)OCC)CC3)c2)CC1 | Non-Toxic
9 | 8.54 | 498 nM | 89% | Nc1ccc(N2CCOCC2)cc1N1CCSCC1 | 
10 | 6.96 | > 5000 nM | 42% | Nc1ccc(N2CCOCC2)cc1N1CCCC1 | 
